“And” between values parts separate entries of the source, which are not always exact repeats. Equal values may be shown once. Where a SMILES comes first, the peptide text is derived from it. [ ]: non-standard residue; d: D form. Hyp = O=C(O)[C@@H]1C[C@@H](O)CN1
Assays:
CCL2/MCP-1 = assay: Example 8 main study Luminex, LPS hPBMCs: CCL2/MCP-1; assay type: cell-based, human; conditions: for CCL2/MCP-1 Concentration: single replicates
Protocol: (§1) Human PBMCs were pretreated with YY-101, YDE-011, YDE-043 or reference compound; Xiidra® at various concentration (ranging from […] to 500 nM) for 2 h before stimulation. An equal volume of 0.5% DMSO was used as a vehicle control. Then, the cells were treated with LPS at 5 ug/ml, which was selected based on the pilot study. The supernatants from treated cells were harvested at 24 h and placed in a 96 well for Luminex cytokine & chemokine profiling using a Luminex 200 multiplex assay (Luminex; R&D system, USA).
(§2) The main study arm with triplicate wells per group in a 24-well plate: • 1. Blank • 2. PBMC: 0.5% DMSO • 3. PBMC+LPS (5 ug/ml) • 4. PBMC+YY-101 500 nM • 5. PBMC+YY-101 50 nM • 6. PBMC+YY-101 5 nM • 7. PBMC+YY-101 0.5 nM • 8. PBMC+LPS (5 ug/ml)+Xiidra® 500 nM • 9. PBMC+LPS (5 ug/ml)+Xiidra® 50 nM • 10. PBMC+LPS (5 ug/ml)+Xiidra® 5 nM • 11. PBMC+LPS (5 ug/ml)+Xiidra® 0.5 nM • 12. PBMC+LPS (5 ug/ml)+Xiidra® 0.05 nM • 13. PBMC+LPS (5 ug/ml)+Xiidra® 0.005 nM • 14. PBMC+LPS (5 ug/ml)+YY-101 500 nM • 15. PBMC+LPS (5 ug/ml)+YY-101 50 nM • 16. PBMC+LPS (5 ug/ml)+YY-101 5 nM • 17. PBMC+LPS (5 ug/ml)+YY-101 0.5 nM • 18. PBMC+LPS (5 ug/ml)+YY-101 0.05 nM • 19. PBMC+LPS (5 ug/ml)+YY-101 0.005 nM • 20. PBMC+LPS (5 ug/ml)+YDE-011 500 nM • 21. PBMC+LPS (5 ug/ml)+YDE-011 50 nM • 22. PBMC+LPS (5 ug/ml)+YDE-011 5 nM • 23. PBMC+LPS (5 ug/ml)+YDE-011 0.5 nM • 24. PBMC+LPS (5 ug/ml)+YDE-011 0.05 nM • 25. PBMC+LPS (5 ug/ml)+YDE-011 0.005 nM • 26. PBMC+LPS (5 ug/ml)+YDE-043 500 nM • 27. PBMC+LPS (5 ug/ml)+YDE-043 50 nM • 28. PBMC+LPS (5 ug/ml)+YDE-043 5 nM • 29. PBMC+LPS (5 ug/ml)+YDE-043 0.5 nM • 30. PBMC+LPS (5 ug/ml)+YDE-043 0.05 nM • 31. PBMC+LPS (5 ug/ml)+YDE-043 0.005 nM
(§3) Multiplex assay was used to measure 30 cytokines and chemokines. The 1:200 diluted cell supernatant and serial dilution of the standard were dispensed into a 96 well plate at 50 ul/well. Then, the pre-mixed cocktail of antibody-coated magnetic beads was dispensed at 50 ul/well and incubated at room temperature for 2 h in a horizontal orbital microplate shaker at 800±500 rpm. The beads were washed using a magnetic device to prevent loss. The biotin-antibody was dispensed in 50 ul of each well and incubated at room temperature for 1 h in a shaker at 800±500 rpm. After washing, streptavidin-PE was added at 50 ul/well and incubated at room temperature for 30 min in a shaker under the same conditions. Finally, after washing, wash buffer (100 ul/well) was added to the plate and incubated in a shaker for 2 min. The Luminex™ 200 setting were set according to the manufacturer's protocol. The data was calculated with a standard five-parameter logistic nonlinear regression analysis of the data (xPonent software 4.2, USA). Results were presented as concentration (ng/ml or pg/ml).

TIMP-1 = assay: Example 8 main study Luminex, LPS hPBMCs: TIMP-1; assay type: cell-based, human
Protocol: as §1, §2, §3

[1] = PBMC + LPS(5 ug/ml) + YY101 0.005 nM
[2] = PBMC + LPS(5 ug/ml) + YY101 0.05 nM
[3] = PBMC + LPS(5 ug/ml) + YY101 0.5 nM
[4] = PBMC + LPS(5 ug/ml) + YY101 5 nM
[5] = PBMC + LPS(5 ug/ml) + YY101 50 nM
[6] = PBMC + LPS(5 ug/ml) + YY101 500 nM
[7] = PBMC + LPS(5 ug/ml), test article 0.005 nM
[8] = PBMC + LPS(5 ug/ml), test article 0.05 nM
[9] = PBMC + LPS(5 ug/ml), test article 0.5 nM
[10] = PBMC + LPS(5 ug/ml), test article 5 nM
[11] = PBMC + LPS(5 ug/ml), test article 50 nM
[12] = PBMC + LPS(5 ug/ml), test article 500 nM
[13] = PBMC without LPS, test article 0.5 nM
[14] = PBMC without LPS, test article 5 nM
[15] = PBMC without LPS, test article 0.05 uM
[16] = PBMC without LPS, test article 50 nM
[17] = PBMC without LPS, test article 500 nM

CC(C)C[C@H](NC(=O)CNC(=O)[C@H](CC(=O)O)NC(=O)[C@H](CCC(N)=O)NC(=O)CNC(=O)[C@@H]1C[C@@H](O)CN1)C(=O)N[C@@H](C)C(=O)NCC(=O)N1CCC[C@H]1C(=O)N[C@@H](CCCCN)C(=O)O [YY-101] (H-[Hyp]GQDGLAGPK-OH; N-terminus and C-terminus assumed)
CCL2/MCP-1 Concentration, Mean (CCL2/MCP-1; [1]): 4528.1 pg/mL | CCL2/MCP-1 Concentration (CCL2/MCP-1; [1]): 4528.4 pg/mL and 4630.2 pg/mL and 4425.5 pg/mL | CCL2/MCP-1 Concentration, Mean (CCL2/MCP-1; [2]): 4596.0 pg/mL | CCL2/MCP-1 Concentration (CCL2/MCP-1; [2]): 4528.4 pg/ml (2×) and 4731.0 pg/ml | CCL2/MCP-1 Concentration, Mean (CCL2/MCP-1; [3]): 4596.3 pg/mL | CCL2/MCP-1 Concentration (CCL2/MCP-1; [3]): 4630.2 pg/ml (2×) and 4528.4 pg/ml | CCL2/MCP-1 Concentration, Mean (CCL2/MCP-1; [4]): 4629.9 pg/mL | CCL2/MCP-1 Concentration (CCL2/MCP-1; [4]): 4630.2 pg/mL and 4528.4 pg/mL and 4731.0 pg/mL | CCL2/MCP-1 Concentration, Mean (CCL2/MCP-1; [5]): 4613.3 pg/mL | CCL2/MCP-1 Concentration (CCL2/MCP-1; [5]): 4579.5 pg/ml and 4630.2 pg/ml (2×) | CCL2/MCP-1 Concentration, Mean (CCL2/MCP-1; [6]): 4459.8 pg/mL | CCL2/MCP-1 Concentration (CCL2/MCP-1; [6]): 4425.5 pg/ml (2×) and 4528.4 pg/ml | CCL2/MCP-1 Concentration, Mean (CCL2/MCP-1; PBMC + YY101 0.5 nM, no LPS): 4679.6 pg/mL | CCL2/MCP-1 Concentration (CCL2/MCP-1; PBMC + YY101 0.5 nM, no LPS): 4528.4 pg/mL and 4830.8 pg/mL | CCL2/MCP-1 Concentration, Mean (CCL2/MCP-1; PBMC + YY101 5 nM, no LPS): 4425.5 pg/mL | CCL2/MCP-1 Concentration (CCL2/MCP-1; PBMC + YY101 5 nM, no LPS): 4425.5 pg/mL | CCL2/MCP-1 Concentration, Mean (CCL2/MCP-1; PBMC + YY101 0.05 uM, no LPS): 5025.5 pg/mL | CCL2/MCP-1 Concentration (CCL2/MCP-1; PBMC + YY101 0.05 uM, no LPS): 5782.0 pg/mL and 4269.1 pg/mL | CCL2/MCP-1 Concentration, Mean (CCL2/MCP-1; PBMC + YY101 50 nM, no LPS): 4373.5 pg/mL | CCL2/MCP-1 Concentration (CCL2/MCP-1; PBMC + YY101 50 nM, no LPS): 4321.5 pg/mL and 4425.5 pg/mL | CCL2/MCP-1 Concentration, Mean (CCL2/MCP-1; PBMC + YY101 500 nM, no LPS): 4475.9 pg/mL | CCL2/MCP-1 Concentration (CCL2/MCP-1; PBMC + YY101 500 nM, no LPS): 4321.5 pg/mL and 4630.2 pg/mL | LPS-induced CCL-2 (in words) (CCL2/MCP-1; at as low as 5 μM, LPS 5 ug/mL 24 hrs): significantly reduced | TIMP-1 Concentration (pg/ml), Mean (TIMP-1; [7]): 3912.8 pg/mL | TIMP-1 Concentration (pg/ml), single replicates (TIMP-1; [7]): 4259.2 pg/ml (2×) and 3220.1 pg/ml | TIMP-1 Concentration (pg/ml), Mean (TIMP-1; [8]): 3820.5 pg/mL | TIMP-1 Concentration (pg/ml), single replicates (TIMP-1; [8]): 3935.4 pg/ml (2×) and 3590.9 pg/ml | TIMP-1 Concentration (pg/ml), Mean (TIMP-1; [9]): 4128.5 pg/mL | TIMP-1 Concentration (pg/ml), single replicates (TIMP-1; [9]): 3935.4 pg/mL and 3590.9 pg/mL and 4859.3 pg/mL | TIMP-1 Concentration (pg/ml), Mean (TIMP-1; [10]): 3696.9 pg/mL | TIMP-1 Concentration (pg/ml), single replicates (TIMP-1; [10]): 3935.4 pg/ml (2×) and 3220.1 pg/ml | TIMP-1 Concentration (pg/ml), Mean (TIMP-1; [11]): 3696.9 pg/mL | TIMP-1 Concentration (pg/ml), single replicates (TIMP-1; [11]): 3935.4 pg/ml (2×) and 3220.1 pg/ml | TIMP-1 Concentration (pg/ml), Mean (TIMP-1; [12]): 3696.9 pg/mL | TIMP-1 Concentration (pg/ml), single replicates (TIMP-1; [12]): 3935.4 pg/ml (2×) and 3220.1 pg/ml | TIMP-1 Concentration (pg/ml), Mean (TIMP-1; [13]): 6580.9 pg/mL | TIMP-1 Concentration (pg/ml), single replicates (TIMP-1; [13]): 6173.1 pg/mL and 6988.8 pg/mL | TIMP-1 Concentration (pg/ml), Mean (TIMP-1; [14]): 6228.8 pg/mL | TIMP-1 Concentration (pg/ml), single replicates (TIMP-1; [14]): 6531.0 pg/mL and 5926.6 pg/mL | TIMP-1 Concentration (pg/ml), Mean (TIMP-1; [15]): 8751.3 pg/mL | TIMP-1 Concentration (pg/ml), single replicates (TIMP-1; [15]): 10402.5 pg/mL and 7100.2 pg/mL | TIMP-1 Concentration (pg/ml), Mean (TIMP-1; [16]): 6928.9 pg/mL | TIMP-1 Concentration (pg/ml), single replicates (TIMP-1; [16]): 7210.4 pg/mL and 6647.4 pg/mL | TIMP-1 Concentration (pg/ml), Mean (TIMP-1; [17]): 7209.9 pg/mL | TIMP-1 Concentration (pg/ml), single replicates (TIMP-1; [17]): 7100.2 pg/mL and 7319.6 pg/mL
